In data set [1] the test system is proliferating T cells. Briefly: Cell proliferation measured by MTT reduction. It counts as cell-based. To be noted: Homo sapiens, 48 h incubation, read-out: IC50 inhibition of MTT reduction (proliferation). How it is done:
(§1) Immediately prior to experiments, frozen PBMC were thawed, centrifuged at 1400 rpm in a Multifuge 3 s (Heraeus) for 4 min, washed in RPMI+10% FCS and resuspended in T cell medium (RPMI+10% FCS+10 μM 2-mercaptoethanol (Sigma), 1×glutamine, 1×non-essential amino acids (Gibco)) at 2×10^6 cells/mL. Cells (2×10^5) were activated by adding 10 μg/mL anti-CD3 and 5 μg/mL anti-CD28 and 20 U/mL IL-2 per well. Cells were incubated at 37° C. in a humidified incubator maintained at 5% CO2 for 4 to 5 days until large numbers of large spherical aggregates or “bursts” of lymphocytes were observed. Activated proliferating T cells were pooled from the wells for further experiments. Resting T cells were incubated for the same length of time but in the presence of 20 U/mL IL-2 only.
(§2) MTT reduction was measured as previously described (Berridge et al., 1996) in a microplate format as follows: exponentially growing cells were centrifuged at 1400 rpm in a Multifuge 3 s (Heraeus) for 4 min, washed and resuspended in HBSS buffer. […] After 2 h, 100 μL of lysing buffer was added and formazan crystals dissolved by manual pipetting using a multichannel pipette before measuring A570 in a BMG FLUOstar OPTIMA plate reader. […]

In the next data set the test system is resting T cells. Briefly: Cell proliferation measured by MTT reduction. Format: cell-based. The settings on record: Homo sapiens, 48 h incubation, read-out: IC50 inhibition of MTT reduction (proliferation). How it is done:
as §1, §2

The next data set concerns MM-derived RPMI 8226. Briefly: Sensitivity of cell types to PXD, viability by AV/PI staining. The settings on record: RPMI 8226, 10 μM PXD for 24 h. Format: cell-based, human. How it is done:
(§3) FIG. 6. Sensitivity of different cell types to PXD. Different cell types were incubated with 10 μM PXD for 24 h and viability was determined by AV/PI staining and reported as [% viable blasts after PXD exposure]/[% viable blasts after 0.1% DMSO exposure]. Percentage values are as follows: AML-derived HL60: 16±5 and HL60p°: 54±6, ALL-derived MOLT-4: 44±4, MM-derived U226: 59±6 and RPMI 8226: 12±4, primary AML blasts: 64±5, primary ALL blasts: 23±4, normal BM: 89±5, proliferating T cells: 69±4, resting T cells: 98±6. Results from cell lines are presented as the average±SEM of at least 3 separate experiments, results from bone marrow samples are presented as the average±SD of single experiments performed in duplicate.
Cell lines were grown in RPMI-1640 medium (GIBCO-BRL, Grand Island, N.Y.) supplemented with 5% (v/v) fetal calf serum, 2 mM […], 25 μg/mL penicillin, 25 μg/mL streptomycin, 50 μg/mL uridine and 1 mM pyruvate to densities of 1-2×10^6 cells/mL (exponential stage), at 37° C. in a humidified incubator maintained at 5% CO2.
Cells were centrifuged at 1400 rpm in a Multifuge 3 s (Heraeus) for 4 min at room temperature, washed in phosphate buffered saline solution, pH 7.3 (PBS) and resuspended in Annexin V binding buffer. […] Staining was analyzed by flow cytometry using a Becton Dickinson Canto II FACS analyser using FlowJo (TreeStar) software.

In the next data set the test system is primary ALL blasts. Briefly: Viability of leukemic blasts from bone marrow samples, AV/PI staining. Format: cell-based, human. On the procedure: as §3
(§4) Bone marrow samples from AML (n=22) and ALL (n=8) patients, containing more than 80% blasts, were selected from the tissue bank. Bone marrow samples were thawed, centrifuged at 1400 rpm in a Multifuge 3 s (Heraeus) for 4 min, washed twice in RPMI and resuspended in RPMI+10% FCS. Aliquots were incubated for 24 h in the presence of 0.1% DMSO (control) or 10 μM PXD and examined for morphology and viability. […] was determined by AV/PI staining as [% viable blasts after PXD treatment]/[% viable blasts in control sample].
(§5) Cells were centrifuged at 1400 rpm in a Multifuge 3 s (Heraeus) for 4 min at room temperature, washed in phosphate buffered saline solution, pH 7.3 (PBS) and resuspended in Annexin V binding buffer. Small aliquots (0.5-1×10^6 cells) were transferred to 1.5 mL tubes and spun at 1400 rpm in a Multifuge 3 s (Heraeus) for 4 min. Most supernatant was removed and 5 μL PI and 5 μL FITC-labelled AV was added to the wet pellets which were vortexed. After 30 min in the dark on ice, 500 μl of AV binding buffer was added, the cells were centrifuged for 2 min at 1400 rpm, washed once with AV binding buffer and resuspended in 300 μL of AV binding buffer in FACS tubes. Staining was analyzed by flow cytometry using a Becton Dickinson Canto II FACS analyser using FlowJo (TreeStar) software.

Another data set has as its system primary AML blasts. The description is as above. Format: cell-based, human. How it is done:
as §3, §4, §5

In data set [2] the test system is late stage solid cancer patients. To be noted: intravenous infusion, phase I; cited from earlier work.
The subject of data set [3] is proliferating T cells. Briefly: Apoptosis/viability by Annexin V/propidium iodide staining. The settings on record: Homo sapiens, T-cell. It counts as cell-based. On the procedure: as §1, §5
The extent of apoptosis in resting and proliferating T cells was determined after 24 h exposure to 10 μM PXD (FIG. 2) by AV/PI staining. […] Resting T cells were not affected (FIG. 2D). The percentage of viable proliferating T cells dropped from 74% (FIG. 2F) to 51% after exposure to 10 μM PXD for 24 h (FIG. 2H), whilst the percentage of viable resting T cells was unaltered (FIGS. 2B and D).
In order to investigate whether cells need to be exposed continually to PXD for its effects to manifest, proliferating T cells were exposed to 10 μM PXD for different periods of time, washed cells twice in RPMI and incubated for a further 24 h in fresh T cell medium.

Structures are written as SMILES. Values joined by “and” are separate entries in the source; they are usually repeats but may differ in a detail not shown here. Equal values may be shown once. Read-outs that look alike come from different tables or passages of the source.

Take `Oc1ccc(C2=Cc3ccc(O)cc3OC2)cc1` [PXD, Isoflav-3-en-4′,7-diol]: the results for the IC50 in the data set with proliferating T cells [1] and in the data set with resting T cells were 5.4 µM and above 200 µM, respectively. In addition, the “[% viable blasts after PXD exposure]/[% viable blasts after 0.1% DMSO exposure]” value with MM-derived RPMI 8226 is recorded as 12±4%. For the same molecule, the viability at 10 µM came to 23 ± 4% with primary ALL blasts (Homo sapiens, 24 h, primary ALL blasts (average), 10 μM PXD for 24 h, read-out: [% viable blasts after PXD exposure]/[% viable blasts after 0.1% DMSO exposure]); 64 ± 5% in the data set on primary AML blasts (Homo sapiens, 24 h, primary AML blasts (average), 10 μM PXD for 24 h, read-out: [% viable blasts after PXD exposure]/[% viable blasts after 0.1% DMSO exposure]); 51% in the data set on proliferating T cells [3] (24 h, 10 μM PXD for 24 h, control 74%, read-out: percentage of viable proliferating T cells (AV/PI)); 69 ± 4% in the data set with proliferating T cells [3] (24 h, proliferating T cells, 10 μM PXD for 24 h, read-out: [% viable blasts after PXD exposure]/[% viable blasts after 0.1% DMSO exposure]); 70 ± 7.1% in the data set on proliferating T cells [3] (PXD pre-incubated in 10% FCS, 10 μM final, relative to 0.1% DMSO, read-out: % Viable cells after exposure time 24 h); 64 ± 4.6% in the data set with proliferating T cells [3] (PXD pre-incubated in 10% FCS, 10 μM final, then 24 h, relative to 0.1% DMSO, read-out: % Viable cells after exposure time 1 min). Moreover, the viability at 10 µM with proliferating T cells [3] (PXD pre-incubated in 10% FCS, 10 μM final, then 24 h, relative to 0.1% DMSO, read-out: % Viable cells after exposure time 10 min) turned out to be 60 ± 7.1%; in the data set with proliferating T cells [3] (PXD pre-incubated in 90% FCS, 10 μM final, relative to 0.1% DMSO, read-out: % Viable cells after exposure time 24 h), 69 ± 7.2%; in the data set with proliferating T cells [3] (PXD pre-incubated in 90% FCS, 10 μM final, then 24 h, relative to 0.1% DMSO, read-out: % Viable cells after exposure time 1 min), 66 ± 4.2%; in the data set on proliferating T cells [3] (PXD pre-incubated in 90% FCS, 10 μM final, then 24 h, relative to 0.1% DMSO, read-out: % Viable cells after exposure time 10 min), 62 ± 5.7%; in the data set on proliferating T cells [3] (PXD pre-incubated in 90% Human Serum, 10 μM final, relative to 0.1% DMSO, read-out: % Viable cells after exposure time 24 h), 73.5 ± 9.2%; in the data set on proliferating T cells [3] (PXD pre-incubated in 90% Human Serum, 10 μM final, then 24 h, relative to 0.1% DMSO, read-out: % Viable cells after exposure time 1 min), 69 ± 4.4%. Also, in the data set with proliferating T cells [3] (PXD pre-incubated in 90% Human Serum, 10 μM final, then 24 h, relative to 0.1% DMSO, read-out: % Viable cells after exposure time 10 min), the viability at 10 µM worked out at 72 ± 7.3%. Also, the “% Viable Blasts” value with primary ALL blasts (individual ALL patient bone marrow samples, 10 μM PXD 24 h, relative to 0.1% DMSO control) is 25% and 29% and 37% and 40% and 7% and 14% and 16% and 19%; in the data set with primary AML blasts (individual AML patient bone marrow samples, 10 μM PXD 24 h, relative to 0.1% DMSO control), 23% and 32% and 36% and 39% and 44% and 49% and 55% and 57% and 58% and 62% and 67% and 71% and 75% and 88% and 92% and 95% and 96% and 97% and 99% and 20%. Moreover, the “stabilization of disease after treatment, some patients” value in data set [2] was “up to 6 months”. The “well tolerated dose with minor side effects” value in data set [2] was at most 30 mg/kg.

These data come from patent US20120039917A1, “IMMUNO[…]” (priority 2008, published 2012).
